Activity calls are given as the source filed them. Rule as the data show it, for most assays here: actives have a measured EC50 and inactives only a lower limit.
How the values were obtained:
[1] = viability of uninfected HEp-2 cells – cell-based, HTS, cytotoxicity control for RSV inhibitor project, dose response (AID 2410); format: functional; details: human respiratory syncytial virus
[2] = biological target: T1, Heat shock factor protein 1 (Mus musculus, UniProt P38532); assay: enhancement of HSF1-driven luciferase signal – cell-based, NIH3T3, luminescence, dose retest, confirmation (AID 435004); format: functional;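 also: stress induced by proteasome inhibitor MG132 added 30 min after compound; luciferase reporter driven by HSF1 response element in NIH3T3 cells; actives raise luminescence as potentiators of the MG132 stress response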
T1 sequence (P38532 whole entry): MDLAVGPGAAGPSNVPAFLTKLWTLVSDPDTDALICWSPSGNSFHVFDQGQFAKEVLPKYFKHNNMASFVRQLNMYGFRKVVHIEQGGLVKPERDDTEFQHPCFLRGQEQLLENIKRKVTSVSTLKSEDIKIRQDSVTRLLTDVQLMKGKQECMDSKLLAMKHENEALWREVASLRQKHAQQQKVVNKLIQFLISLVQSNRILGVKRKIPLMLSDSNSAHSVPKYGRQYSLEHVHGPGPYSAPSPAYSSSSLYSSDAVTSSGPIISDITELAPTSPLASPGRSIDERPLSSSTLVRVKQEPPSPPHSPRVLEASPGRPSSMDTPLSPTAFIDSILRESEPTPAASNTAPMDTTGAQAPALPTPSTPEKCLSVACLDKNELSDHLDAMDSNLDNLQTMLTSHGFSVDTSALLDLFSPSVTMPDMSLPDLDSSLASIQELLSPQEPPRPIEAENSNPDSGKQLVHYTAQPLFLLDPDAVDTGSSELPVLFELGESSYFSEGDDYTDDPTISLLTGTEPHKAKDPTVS

H4 = assay: Luminescence Cell-Based Dose Response HTS to Identify Activators of 5'UTR Stem-Loop Driven Prion Protein mRNA Translation in H4 Neuroglioblastoma Cells. [Related pubchem assays: 1829 (Project Summary), 1814 (Primary HTS)]; format: functional; details: Homo sapiens
[3] = Luminescence Cell-Based Dose Confirmation HTS to Identify Activators of 5'UTR Stem-Loop Driven Alpha-Synuclein mRNA Translation in H4 Neuroglioblastoma Cells. [Related pubchem assays: 1829 (Project Summary), 1814 (Primary HTS)]; format: functional
[4] = Luminescence Cell-Based Dose Response HTS to Identify Activators of Luciferase Translation or Activity in H4 […] Cells. [Related pubchem assays: 1829 (Project Summary), 1814 (Primary HTS)]; format: functional
[5] = Luminescence Cell-Based Dose Retest to Confirm Inhibitors of Cancer Stem Cells. [Related pubchem assays (depositor defined):AID2717, AID2721]; format: functional; details: Homo sapiens
Cytochrome P450 1A2 = biological target: T2, Cytochrome P450 1A2 (Homo sapiens, UniProt P05177);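 also: PubChem cytochrome P450 panel assay, CYP1A2 panel member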
T2 sequence (P05177 whole entry): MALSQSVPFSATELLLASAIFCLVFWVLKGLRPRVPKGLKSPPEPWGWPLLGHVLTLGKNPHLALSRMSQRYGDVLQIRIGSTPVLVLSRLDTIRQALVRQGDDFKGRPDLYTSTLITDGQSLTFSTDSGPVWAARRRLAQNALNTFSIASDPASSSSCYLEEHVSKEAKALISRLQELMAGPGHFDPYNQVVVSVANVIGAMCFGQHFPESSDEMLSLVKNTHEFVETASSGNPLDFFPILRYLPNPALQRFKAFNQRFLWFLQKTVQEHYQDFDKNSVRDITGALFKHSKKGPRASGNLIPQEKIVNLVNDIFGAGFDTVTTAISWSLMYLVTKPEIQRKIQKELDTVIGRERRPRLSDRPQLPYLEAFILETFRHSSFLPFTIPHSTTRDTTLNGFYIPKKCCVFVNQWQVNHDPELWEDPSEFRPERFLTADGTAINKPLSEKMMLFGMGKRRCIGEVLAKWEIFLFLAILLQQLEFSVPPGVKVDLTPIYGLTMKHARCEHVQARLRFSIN

[6] = Trypanosoma cruzi growth suppression in host cells – NIH3T3 host cells, beta-gal luminescence, confirmation (AID 2044); format: functional, cell-based;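 also: intracellular parasites grown in NIH/3T3 mouse fibroblasts as host cells; luminescent beta-galactosidase reporter signal from transgenic T. cruzi replicating inside host cells; inhibitors lower the luminescence signal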
[7] = NIH3T3 cell viability loss – ATP luminescence, mouse fibroblasts, counter-screen, dose response (AID 2010); format: functional, cell-based;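 also: cells exposed to compound for about 90 hours before reading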
Cytochrome P450 3A4 = Cytochrome P450 3A4 (Homo sapiens, UniProt P08684);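 also: CYP3A4 tested as one member of a cytochrome P450 panel screen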
Chain of Cytochrome P450 3A4 (P08684 whole entry): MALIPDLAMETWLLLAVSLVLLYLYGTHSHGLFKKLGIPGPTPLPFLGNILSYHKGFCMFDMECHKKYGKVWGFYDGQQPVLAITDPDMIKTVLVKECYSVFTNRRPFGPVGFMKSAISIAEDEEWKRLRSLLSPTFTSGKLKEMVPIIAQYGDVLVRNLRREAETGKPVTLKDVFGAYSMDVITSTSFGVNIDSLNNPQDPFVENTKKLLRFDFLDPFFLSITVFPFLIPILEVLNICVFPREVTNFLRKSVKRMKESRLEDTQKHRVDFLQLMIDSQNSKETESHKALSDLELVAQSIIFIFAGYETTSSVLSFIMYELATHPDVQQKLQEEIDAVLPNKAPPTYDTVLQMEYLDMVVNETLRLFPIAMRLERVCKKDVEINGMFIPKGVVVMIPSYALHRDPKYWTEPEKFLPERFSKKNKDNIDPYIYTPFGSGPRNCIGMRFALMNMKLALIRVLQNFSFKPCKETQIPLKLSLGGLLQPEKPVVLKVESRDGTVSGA

## O=C(CCc1nnc2n(Cc3ccc(F)cc3)c(=O)c3ccccc3n12)N1CCN(c2ccccn2)CC1
[1]
  CC50: 37.4 µM (active)

## O=C(NNc1c(F)c(F)cc(F)c1F)c1ccc(Cl)nc1
[2]
  EC50: > 260 µM (inactive)

## CC(=O)Cn1ncc(N2CCCCC2)c(Cl)c1=O
H4
  EC50: 23.5 µM (active)
[3]
  EC50: 24.6 µM (active)
[4]
  EC50: 11.5 µM (active)

## CCOC(=O)c1c(C)n(C)c2ccc(OCC(O)Cn3c(C)nc4ccccc43)cc12 (stereo not given)
[1]
  CC50: 19.4 µM (active)

## CCOc1ncccc1C(=O)N(C)CC1COc2ccccc2O1 (stereo not given)
[2]
  EC50: > 260 µM (inactive)

## CCOc1ccc(NC(=O)Nc2ccc(Cc3ccncc3)cc2)cc1
[5]
  AC50: 8.67 µM (active)

## COc1ccc2c3c(ccc2c1)N[C@H](C(=O)O)CC3
Cytochrome P450 1A2
  AC50: 0.501 µM (inconclusive)

## Cc1ccc2nc(N(CCCN(C)C)C(=O)c3cc(-c4cccs4)nc4ccccc34)sc2c1
[5]
  AC50: 4.45 µM (active)

## Cc1nc(OCc2ccccc2)c2sc3nc4c(cc3c2n1)COC(C)(C)C4
H4
  EC50: > 120 µM (not active)
[3]
  EC50: 9.71 µM (active)
[4]
  EC50: 7.5 µM (active)

## Cc1ccc2sc(N(CCCN(C)C)C(=O)c3ccc(S(=O)(=O)N4CCCCCC4)cc3)nc2c1C
[6]
  EC50: 0.445 µM (active)
[7]
  EC50: 9.3 µM (active)
[5]
  AC50: 3.12 µM (active)

## CSc1nc2n(n1)C(c1cc(Br)ccc1F)C(C(=O)N(C)C)=C(C)N2 (stereo not given)
Cytochrome P450 3A4
  AC50: 14.1 µM (inconclusive)
Cytochrome P450 1A2
  AC50: 25.1 µM (inconclusive)

## COc1ccc(N2CCN(c3ncnc4c3cnn4-c3ccc(C)cc3C)CC2)cc1
[2]
  EC50: > 260 µM (inactive)

## Cc1cc(C(=O)CN2C(=O)NC3(CCCCC3)C2=O)c(C)n1Cc1ccco1
[2]
  EC50: 44 µM (active)

## COc1ccc(N=Nc2ccc(CO)cc2)cc1
[2]
  EC50: > 260 µM (inactive)

## O=[N+]([O-])c1ccc(C2CCCC/C2=N\OCc2cccc(F)c2)c([N+](=O)[O-])c1 (stereo not given)
[6]
  EC50: 0.518 µM (active)
[7]
  EC50: > 60 µM (not active)
Cytochrome P450 1A2
  AC50: 15.8 µM (inconclusive)

## CCOC(=O)C(/C=N/c1ccc(C#N)cc1)=C(/O)OCC
[2]
  EC50: > 260 µM (inactive)

## COc1ccc(NS(=O)(=O)c2cccc(C(=O)N/N=C(\C)c3ccc(-n4ccnc4)cc3)c2)cc1
[5]
  AC50: > 195 µM (inactive)

## Cc1ccc(/C=N/N2CCN(Cc3ccccc3)CC2)s1
H4
  EC50: > 120 µM (not active)
[3]
  EC50: 21 µM (active)
[4]
  EC50: 11.9 µM (active)

## COc1ccccc1-c1c[nH]nc1-c1ccc(OCc2ccccc2F)cc1O
[5]
  AC50: 4.88 µM (active)
